Reference: PubChem BioAssay AID192 (DTP/NCI, 2004)
Several values for one entry are separate records, joined by “and”; a condition that tells them apart may be missing. Equal entries are not always repeated. Inconclusive results and toxic doses are left out.

Tested on: BDF1 mice, B16 melanoma ip, median survival T/C
Test: NCI In Vivo Anticancer Drug Screen. Data for tumor model B16 Melanoma (intraperitoneal) in B6D2F1 (BDF1) mice
Settings: endpoint: median survival time, higher = longer survival
Summary of the method: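 Survival or tumor size is measured after treatment of tumor-bearing mice and normalised to the vehicle-treated control group.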

[1] = dose: 100.0 mg/kg/injection, schedule: Q01DX009 (ip), vehicle: Klucel (hydroxypropylcellulose) (HPC)
[2] = dose: 200.0 mg/kg/injection, schedule: Q01DX009 (ip), vehicle: Klucel (hydroxypropylcellulose) (HPC)
[3] = dose: 400.0 mg/kg/injection, schedule: Q01DX009 (ip), vehicle: Klucel (hydroxypropylcellulose) (HPC)

CN1CCc2cc3c(c4c2C1C(O)c1ccccc1-4)OCO3 (stereo unspecified)
T/C (dose: 0.5 mg/kg/injection, schedule: Q01DX009 (ip), vehicle: acid diluted with saline): 113 % of control | T/C (dose: 1.0 mg/kg/injection, schedule: Q01DX009 (ip), vehicle: acid diluted with saline): 109 % of control | T/C (dose: 2.0 mg/kg/injection, schedule: Q01DX009 (ip), vehicle: acid diluted with saline): 96 % of control | T/C (dose: 4.0 mg/kg/injection, schedule: Q01DX009 (ip), vehicle: acid diluted with saline): 89 % of control

O=C(c1ccccc1)C1NC1c1ccccc1 (stereo unspecified)
T/C (dose: 20.0 mg/kg/injection, schedule: Q01DX009 (ip), vehicle: Klucel (hydroxypropylcellulose) (HPC)): 100 % of control | T/C (dose: 40.0 mg/kg/injection, schedule: Q01DX009 (ip), vehicle: Klucel (hydroxypropylcellulose) (HPC)): 97 % of control | T/C (dose: 80.0 mg/kg/injection, schedule: Q01DX009 (ip), vehicle: Klucel (hydroxypropylcellulose) (HPC)): 94 % of control

O=C(Nc1ccccc1F)c1cccc(C(=O)Nc2ccccc2F)c1
T/C (dose: 50.0 mg/kg/injection, schedule: Q01DX009 (ip), vehicle: Klucel (hydroxypropylcellulose) (HPC)): 101 % of control | T/C [1]: 108 % of control | T/C [2]: 96 % of control

COc1cccc(C2CCN(C)C2)c1 (stereo unspecified)
T/C (dose: 6.25 mg/kg/injection, schedule: Q01DX009 (ip), vehicle: Klucel (hydroxypropylcellulose) (HPC)): 89 % of control | T/C (dose: 12.5 mg/kg/injection, schedule: Q01DX009 (ip), vehicle: Klucel (hydroxypropylcellulose) (HPC)): 100 % of control | T/C (dose: 25.0 mg/kg/injection, schedule: Q01DX009 (ip), vehicle: Klucel (hydroxypropylcellulose) (HPC)): 100 % of control

O=C(Cl)COc1cccc2ccccc12
T/C [1]: 103 % of control | T/C [2]: 110 % of control | T/C [3]: 106 % of control

COc1cc2ccc3cnccc3c2cc1OC
T/C (dose: 25.0 mg/kg/injection, schedule: Q01DX009 (ip), vehicle: water): 99 % of control | T/C (dose: 50.0 mg/kg/injection, schedule: Q01DX009 (ip), vehicle: water): 91 % of control | T/C (dose: 100.0 mg/kg/injection, schedule: Q01DX009 (ip), vehicle: water): 98 % of control | T/C (dose: 200.0 mg/kg/injection, schedule: Q01DX009 (ip), vehicle: water): 88 % of control

c1cc[c]([Sn][c]2ccccc2)cc1
T/C (dose: 0.8 mg/kg/injection, schedule: Q04DX003 (ip), vehicle: saline with Tween-80): 97 % of control | T/C (dose: 1.2 mg/kg/injection, schedule: Q04DX003 (ip), vehicle: saline with Tween-80): 97 % of control | T/C (dose: 1.25 mg/kg/injection, schedule: Q01DX009 (ip), vehicle: saline): 95 % of control | T/C (dose: 1.8 mg/kg/injection, schedule: Q04DX003 (ip), vehicle: saline with Tween-80): 100 % of control | T/C (dose: 2.5 mg/kg/injection, schedule: Q01DX009 (ip), vehicle: saline): 111 % of control | T/C (dose: 2.5 mg/kg/injection, schedule: Q04DX003 (ip), vehicle: saline with Tween-80): 121 % of control | T/C (dose: 5.0 mg/kg/injection, schedule: Q01DX009 (ip), vehicle: saline): 109 % of control | T/C (dose: 5.0 mg/kg/injection, schedule: Q04DX003 (ip), vehicle: saline with Tween-80): 115 % of control

COCCOC1=C(N2CC2)C(=O)C(OCCOC)=C(N2CC2)C1=O
T/C (dose: 0.5 mg/kg/injection, schedule: Q01DX009 (ip), vehicle: saline): 102 % of control and 123 % of control | T/C (dose: 1.0 mg/kg/injection, schedule: Q01DX009 (ip), vehicle: saline): 110 % of control | T/C (dose: 2.0 mg/kg/injection, schedule: Q01DX009 (ip), vehicle: saline): 94 % of control | T/C (dose: 4.0 mg/kg/injection, schedule: Q01DX009 (ip), vehicle: saline): 150 % of control

CCOc1ccc(NC(=O)c2ccccc2Cl)cc1
T/C [1]: 93 % of control | T/C [2]: 112 % of control | T/C [3]: 93 % of control

NCC(=O)c1ccc(O)c(O)c1
T/C (dose: 100.0 mg/kg/injection, schedule: Q01DX009 (ip), vehicle: saline): 100 % of control | T/C (dose: 200.0 mg/kg/injection, schedule: Q01DX009 (ip), vehicle: saline): 110 % of control | T/C (dose: 400.0 mg/kg/injection, schedule: Q01DX009 (ip), vehicle: saline): 120 % of control

CCc1ccccc1NC(=O)Nc1ccc(Cl)c(Cl)c1
T/C (dose: 75.0 mg/kg/injection, schedule: Q01DX009 (ip), vehicle: Klucel (hydroxypropylcellulose) (HPC)): 102 % of control | T/C (dose: 150.0 mg/kg/injection, schedule: Q01DX009 (ip), vehicle: Klucel (hydroxypropylcellulose) (HPC)): 97 % of control | T/C (dose: 300.0 mg/kg/injection, schedule: Q01DX009 (ip), vehicle: Klucel (hydroxypropylcellulose) (HPC)): 89 % of control

COc1ccc(S(=O)(=O)N=N/C=C2\C=CC=CN2O)cc1OC
T/C (dose: 6.25 mg/kg/injection, schedule: Q01DX009 (ip), vehicle: saline with Tween-80): 99 % of control | T/C (dose: 12.5 mg/kg/injection, schedule: Q01DX009 (ip), vehicle: saline with Tween-80): 100 % of control | T/C (dose: 25.0 mg/kg/injection, schedule: Q01DX009 (ip), vehicle: saline with Tween-80): 112 % of control | T/C (dose: 50.0 mg/kg/injection, schedule: Q01DX009 (ip), vehicle: saline with Tween-80): 112 % of control | T/C (dose: 200.0 mg/kg/injection, schedule: Q01DX009 (ip), vehicle: saline with Tween-80): 161 % of control
